Experimental data from the supplement of paper PMC5579334.

Key:
HS-PSS [1] = assay: relative IC50 (inflection point of fitted dose-response curve, CellTox-Green cytotoxicity, 72 h; top asymptote may be below 50%); higher = less potent
In short: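 For 72 h at 37 °C, MPNST cell lines and primary human Schwann cells were exposed in 384-well plates to five 10-fold compound dilutions. CellTox-Green, added before seeding at a final 1:1000 dilution, gave fluorescence from DNA released by disrupted cells. Signals were scaled to vehicle and positive-control wells, cultures failing plate quality control were left out, and four-parameter logistic fits were applied. Relative IC50 and drug sensitivity score were derived from the fits, with IC50 censored at the top concentration.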

HS-PSS [2] = assay: relative IC50 (inflection point of fitted dose-response curve, CellTiter-Glo viability, 72 h; top asymptote may be below 50% inhibition); higher = less potent
In short: (§1)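 After seeding 750–1000 cells per well of MPNST cell lines or primary human Schwann cells into 384-well plates preprinted with each compound at five concentrations in 10-fold steps, plates were kept 72 h at 37 °C, 5% CO2. Viability was read as CellTiter-Glo ATP luminescence relative to vehicle and positive-control wells, with duplicates averaged where present. The data were fitted with four-parameter logistic models. Drug sensitivity score and relative IC50, censored at the top concentration, derive from the fits, and percent inhibition refers to the top concentration.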

HS-Sch-2 = assay: as above
In short: as §1

YST-1 = assay: as above
In short: as §1

Compound	relative IC50 (HS-PSS [1]) [µM]	relative IC50 (HS-PSS [2]) [µM]	relative IC50 (HS-Sch-2) [µM]	relative IC50 (YST-1) [µM]
CCNC(=O)C[C@@H]1N=C(c2ccc(Cl)cc2)c2cc(OC)ccc2-n2c(C)nnc21	> 10	0.709	0.624	0.501
CCn1c(-c2nonc2N)nc2c(C#CC(C)(C)O)ncc(OC[C@H]3CCCNC3)c21	> 10	> 10	1.62	> 10
CCn1cc(-c2ccnc3[nH]c(-c4cccc(CN(C)C)c4)cc23)c(-c2ccc(NC(=O)N(C)C)cc2)n1	> 1	0.142	0.157	0.00397
CNC(=O)c1ccc(C)c(-n2c(C)cc(OCc3ccc(F)cc3F)c(Br)c2=O)c1	> 1	> 1	> 1	0.0446
CNC(=O)c1ccccc1Nc1nc(Nc2ccc3c(c2OC)CCC[C@H](N2CCN(CCO)CC2)C3)ncc1Cl	1.09	0.155	0.979	0.633
CNc1ncc2cc(-c3cc(NC(=O)NCCC(C)(C)C)c(F)cc3C)c(C)nc2n1	3.59	3.82	0.235	0.561
CS(=O)(=O)N1CCc2c(-c3cnc(N)nc3)nc(N3CCOCC3)nc21	> 10	0.687	1.05	0.256
C[C@@H](Oc1cc(-n2cnc3ccc(CN4CCN(C)CC4)cc32)sc1C(N)=O)c1ccccc1C(F)(F)F	3.2	0.501	0.0119	0.0209
C[C@@H](Oc1ccc2[nH]nc(/C=C/c3cnn(CCO)c3)c2c1)c1c(Cl)cncc1Cl	0.245	0.187	0.118	0.114
C[C@@H]1CN(CC(=O)Nc2ccc3c(c2)Cc2cccc(-c4cc(=O)cc(N5CCOCC5)o4)c2S3)C[C@H](C)O1	> 25	10.1	4.24	9.26
Cc1c(NC(=O)OC[C@@H]2COCCN2)cn2ncnc(Nc3ccc4c(cnn4Cc4cccc(F)c4)c3)c12	–	2.15	1.99	1
Cc1nc(Nc2n[nH]c3c2CN(C(=O)N[C@H](CN(C)C)c2ccccc2)C3(C)C)c2sccc2n1	0.127	0.0225	0.413	0.067
Cc1nn(C)c(COc2ccc(N3CCN(S(=O)(=O)N(C)C)CC3)cc2)c1-c1cccc2c(CCCOc3cccc4ccccc34)c(C(=O)O)n(CCN3CCOCC3)c12	14.9	17.8	15.4	12.7
Cn1cc(C2=Nc3cc(NC(=O)C(N)C4CCCCC4)cc4c3C2=CNNC4=O)cn1 (configuration not stated)	> 10	0.0771	0.108	0.163
NCC(=O)Nc1ccc(-n2nc(C(F)(F)F)cc2-c2ccc3c(ccc4ccccc43)c2)cc1	5.04	9.14	6	7.97
NC[C@@](O)(c1ccc(Cl)cc1)c1ccc(-c2cn[nH]c2)cc1	2.78	2.03	1.51	2.97
O=C(O)c1ccc(CN2CCC(CN[C@@H]3C[C@H]3c3ccccc3)CC2)cc1	> 10	> 10	> 10	> 10
O=C1NC(=O)/C(=C/c2ccc3nccc(-c4ccncc4)c3c2)S1	> 10	3.06	3.38	1.17
O=c1cc(N2CCOCC2)oc2c(-c3ccccc3)cccc12	18.3	13.4	13.7	7.66
Cn1cc(C[C@@H](N)C(=O)O)c2ccccc21 [1-methyl-D-tryptophan]	> 5	> 5	> 5	> 5
CC(C)[C@H](C(=O)Nc1ccc(C(=O)NO)cc1)c1ccccc1 [AR-42]	1.92	1.06	1.15	0.27
COc1cc(N2CCC(N3CCN(C)CC3)CC2)ccc1Nc1ncnc(Nc2ccccc2S(=O)(=O)C(C)C)n1 [ASP3026]	> 10	> 10	> 10	> 10
O=C(NC1CCNCC1)c1n[nH]cc1NC(=O)c1c(Cl)cccc1Cl [AT7519]	–	0.277	0.337	0.0693
COc1cc(N2CCN(C)CC2)ccc1Nc1nccc(-c2cn(C)c3cnccc23)n1 [AZ191]	2.46	2.61	3.35	3.4
N[C@@H]1CCCN(c2c(/C=C3\SC(=O)NC3=O)cccc2-c2ccccc2)C1 [AZD1208]	> 10	> 10	> 10	0.204

Compound	relative IC50 (HS-PSS [1]) [µM]	relative IC50 (HS-PSS [2]) [µM]	relative IC50 (HS-Sch-2) [µM]	relative IC50 (YST-1) [µM]
N#Cc1ccc2[nH]c(O)c(-c3ccc(CN4CCOCC4)cn3)c2c1 [AZD-1080]	> 10	2.38	3.63	> 10
Cc1ncc(-c2ccnc(Nc3ccc(S(C)(=O)=O)cc3)n2)n1C(C)C [AZD-5438]	–	0.367	1.9	1.45
C[C@@H](Nc1cc(F)cc(F)c1)c1cc(C(=O)N(C)C)cc2c(=O)cc(N3CCOCC3)oc12 [AZD-8186]	> 1	> 1	> 1	0.357
COc1cc(NS(C)(=O)=O)ccc1Nc1c2ccccc2nc2ccccc12 [Amsacrine]	–	1.25	0.634	0.252
N#CC(c1ccnc(OCc2ccc(CN3CCOCC3)cc2)n1)c1nc2ccccc2s1 (configuration not stated) [Bentamapimod]	–	1.69	2.69	1.5
CO[C@H]1C(=O)[C@]2(C)[C@@H](OC)C[C@H]3OC[C@@]3(OC(C)=O)[C@H]2[C@H](OC(=O)c2ccccc2)[C@]2(O)C[C@H](OC(=O)[C@H](O)[C@@H](NC(=O)OC(C)(C)C)c3ccccc3)C(C)=C1C2(C)C [Cabazitaxel]	–	0.418	0.00094	0.00074
Cc1cc(Nc2ncc(Cl)c(Nc3ccccc3S(=O)(=O)C(C)C)n2)c(OC(C)C)cc1C1CCNCC1 [Ceritinib]	–	0.0913	0.926	0.359
O=C(c1ccc(F)c(F)c1Nc1ccc(I)cc1F)N1CC(O)([C@@H]2CCCCN2)C1 [Cobimetinib]	–	0.159	0.3	> 1
CON(C)C(=O)N1N=C(c2cc(F)ccc2F)S[C@@]1(CCCN)c1ccccc1 [Filanesib]	–	0.00462	0.00219	0.00228
CC(C)NC[C@@H](C(=O)N1CCN(c2ncnc3c2[C@H](C)C[C@H]3O)CC1)c1ccc(Cl)cc1 [Ipatasertib]	–	1.16	1.08	0.879
CN[C@@H](C)C(=O)N[C@H](C(=O)N1CCC[C@H]1c1nc(C(=O)c2ccc(F)cc2)cs1)C1CCCCC1 [LCL161]	–	3.86	7.52	4.26
O=C(O)c1ccc(Nc2ncc3c(n2)-c2ccc(Cl)cc2C(c2c(F)cccc2F)=NC3)cc1 [MLN-8054]	–	1.26	1.11	0.625
O=C(Nc1cccc(NC(=O)c2cccc(O)c2O)c1)c1cccc(O)c1O [MST-312]	–	3.37	0.984	3.12
CNC(=O)c1nn(C)c2c1C(C)(C)Cc1cnc(Nc3ccc(N4CCN(C)CC4)cc3)nc1-2 [Milciclib]	–	0.779	1.24	0.351
NC(=O)c1cccc2cn(-c3ccc(C4CCCNC4)cc3)nc12 (configuration not stated) [Niraparib]	–	1.76	0.661	0.461
CC(=O)c1cnc2ccc(-c3cc(Cl)c(O)c(Cl)c3)nc2c1N[C@H]1CC[C@H](CN(C)C)CC1 [OTSSP167]	–	0.339	0.0261	0.0108
C=CC(=O)Nc1cc(Nc2nccc(-c3cn(C)c4ccccc34)n2)c(OC)cc1N(C)CCN(C)C [Osimertinib]	–	0.472	0.759	0.299
CCn1nnc2c(N3CCOCC3)nc(-c3ccc(NC(=O)Nc4ccc(C(=O)N5CCN(C)CC5)cc4)cc3)nc21 [PKI-402]	–	0.0467	0.0958	0.0611
CCOc1cc2ncc(C#N)c(Nc3ccc(F)c(Cl)c3)c2cc1NC(=O)/C=C/CN(C)C [Pelitinib]	–	0.0795	0.195	0.323
COc1cccc(OCCCN)c1-c1cc(Nc2cnc(C#N)cn2)n[nH]1 [Prexasertib]	–	1.77	0.026	0.0547
O=C(CCCCCCNC(=O)c1cnc(N(c2ccccc2)c2ccccc2)nc1)NO [Rocilinostat]	–	2.76	1.93	1.24
Cc1cc2c(C(=O)NC[C@H](C)c3ccccc3)c(O)c(O)cc2c(O)c1-c1c(C)cc2c(C(=O)NC[C@H](C)c3ccccc3)c(O)c(O)cc2c1O [Sabutoclax]	–	8.74	0.523	0.618
CNC(=O)c1ccccc1Nc1cc(Nc2ccc(N3CCOCC3)cc2OC)ncc1C(F)(F)F [VS-4718]	–	3.69	2.61	0.724
O=C(/C=C\n1cnc(-c2cc(C(F)(F)F)cc(C(F)(F)F)c2)n1)NNc1ccccn1 [Verdinexor]	–	0.137	0.137	0.144
